Assay results published in PMC5694482 (Frontiers in Pharmacology, 2017).
Several values for one entry are separate records, joined by “and”; a condition that tells them apart may be missing. Identical values can stand only once. Entries after “also recorded” stand apart in the source; their conditions may differ. Like-named read-outs stand apart in the source and are kept apart here.

Assays:
H4R [1] = molecular target: T1, H4R (Homo sapiens, UniProt Q9H3N8); experiment: G protein (Gi1) activation BRET assay, H4R, agonist and antagonist mode; assay type: cell-based; conditions: for Gi activation at H4R (agonist mode): BRET Gi1 biosensor, up to 10,000 nM; for block of histamine activity at H4R (antagonist mode): preincubation 30 min at 10,000 nM before histamine
T1 construct: expressed in transfected cells; host or cells: HEK293T
T1 sequence (Q9H3N8 whole entry, species assumed): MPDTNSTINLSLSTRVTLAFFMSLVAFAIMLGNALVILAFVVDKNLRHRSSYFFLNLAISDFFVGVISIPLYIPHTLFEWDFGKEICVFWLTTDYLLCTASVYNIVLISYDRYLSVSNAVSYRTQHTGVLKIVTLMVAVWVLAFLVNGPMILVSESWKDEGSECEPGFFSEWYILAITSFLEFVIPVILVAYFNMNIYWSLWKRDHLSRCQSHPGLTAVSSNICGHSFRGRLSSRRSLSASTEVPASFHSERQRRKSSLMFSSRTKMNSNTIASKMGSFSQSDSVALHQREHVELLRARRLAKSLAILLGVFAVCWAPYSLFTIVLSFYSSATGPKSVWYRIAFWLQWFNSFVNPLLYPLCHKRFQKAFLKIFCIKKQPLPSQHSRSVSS

H4R [2] = molecular target: T1, H4R; experiment: Competition binding assay with [3H]-histamine in HEK293T cells transiently expressing H4R; conditions: for binding to H4R in initial screening (in words): screening format, Supplementary Figure S2
H3R [3] = molecular target: T2, H3R (Homo sapiens, UniProt Q9Y5N1); conditions: for Ki: H3R pKi ± SEM; for SI H4R/H3R (Ki): selectivity index, ratio of Ki H4R/H3R
T2 sequence (Q9Y5N1 whole entry, species assumed): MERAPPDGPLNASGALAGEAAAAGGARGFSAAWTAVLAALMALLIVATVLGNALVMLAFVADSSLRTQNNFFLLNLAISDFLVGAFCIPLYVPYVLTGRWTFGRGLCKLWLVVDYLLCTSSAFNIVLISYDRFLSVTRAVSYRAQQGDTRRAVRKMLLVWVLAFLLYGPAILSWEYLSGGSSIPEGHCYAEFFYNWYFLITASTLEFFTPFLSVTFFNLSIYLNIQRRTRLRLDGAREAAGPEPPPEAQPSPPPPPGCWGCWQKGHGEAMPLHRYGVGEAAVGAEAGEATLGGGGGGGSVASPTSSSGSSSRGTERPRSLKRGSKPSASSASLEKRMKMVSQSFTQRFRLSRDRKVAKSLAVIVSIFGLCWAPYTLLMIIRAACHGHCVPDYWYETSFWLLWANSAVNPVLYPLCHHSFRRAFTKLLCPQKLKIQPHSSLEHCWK

H3R [4] = molecular target: T2, H3R; experiment: G protein (Gi1) activation BRET assay, H3R, agonist and antagonist mode; assay type: cell-based; set-up: expressed in transfected cells; host or cells: HEK293T; conditions: BRET Gi1 biosensor, up to 10,000 nM
mouse asthma model [5] = experiment: OVA-induced allergic asthma in mice, cell counts in bronchoalveolar lavage; assay type: in vivo, Male C57Bl/6 mice; conditions: 3 and 5 mg/kg intraperitoneally 30 min before antigen challenge
Protocol: Male C57Bl/6 mice weighing 20–25 g, 6–8 weeks old, from our own animal facilities were housed in a room with a 12 h light–dark cycle with water and food ad libitum. Animal care and research protocols were in accordance with the principles and guidelines adopted by the Brazilian College of Animal Experimentation (COBEA) and this project was approved by the Ethical Committee for Animal Research of the Federal University of São Paulo (CEUA 1666/99).
Mice (n = 5 per group) were sensitized on days 0 and 7 by an intraperitoneal injection of a mixture containing […] of ovalbumin (OVA; Grade V, Sigma–Aldrich, United States) and 1 mg of Al(OH)3 in PBS (a total volume of 0.2 ml). Mice were challenged by exposure to an aerosol of OVA generated by an ultrasonic nebulizer (ICEL US-800, SP, Brazil) delivering particles of […] diameter at approximately 0.75 cc/min for 20 min at days 14 and 21. The concentration of OVA in the nebulizer was 2.5% w/v in PBS. The control group consisted of animals immunized as previously described and challenged two times with PBS solution. Compounds 1d and 1e were administered intraperitoneally in two different dosages (5 and 3 mg/kg) to the test groups 30 min before the antigen challenge. Sensitized and control groups were used to assess the anti-inflammatory activity ([Corrêa et al., 2017]).
Mice were euthanized with intraperitoneal ketamine and xylazine (100 and 10 mg/kg, respectively; Agibrands do Brazil, São Paulo, São Paulo, Brazil), 24 h after exposure to the last aerosol challenge. A tracheal cannula was inserted via a mid cervical incision, and the airways were washed twice with 1 ml of phosphate-buffered saline (PBS, pH 7.4 at 4°C).
The bronchoalveolar lavage fluid was centrifuged at 170 × g for 10 min at 4°C, the supernatant was removed, and the cell pellet was re-suspended in 1 ml of PBS. One volume of a solution containing 0.5% crystal violet dissolved in 30% acetic acid was added to nine volumes of the cell suspension. The total number of cells was determined by counting in a hematocytometer. […]

mouse asthma model [6] = conditions: cited from earlier work
[7] = displacement of 1.15 nM [3H]-histamine, HEK293T cells, Cheng-Prusoff
[8] = displacement of 1.15 nM [3H]-histamine, HEK293T cells, Cheng-Prusoff, read-out: H4R pKi ± SEM (converted)

Row | SMILES | Ki (H3R [3]; [7]) | SI H4R/H3R (Ki) (H3R [3]) | Ki (H4R [2]; [8]) | also measured
1 | Cc1ccc2c(c1)CC(CN1CCN(C)CC1)O2 (centres unmarked) [1f, 1-methyl-4-[(5-methyl-2,3-dihydro-1-benzofuran-2-yl)methyl]piperazine] | 708 nM | 14 |  | Gi activation at H4R (agonist mode) (H4R [1]): weak agonistic effect in high concentrations; also recorded: moderate agonistic effect; block of histamine activity at H4R (antagonist mode) (H4R [1]): only partially blocked histamine activity; also recorded: only partially reduced histamine effect; Ki (H4R [2]; read-out: H4R Ki / binding affinity): ~10000 nM; binding to H4R in initial screening (in words) (H4R [2]): considerable binding to H4R
2 | NC(=NCc1ccc(Cl)cc1)SCCCc1cnc[nH]1 [Clobenpropit] |  |  |  | Gi activation at H3R (agonist mode) (H3R [4]): unable to trigger Gi activation
3 | C=CCN1CCN(CC2Cc3ccccc3O2)CC1 (centres unmarked) [1c, 1-allyl-4-[(2,3-dihydro-1-benzofuran-2-yl)methyl]piperazine] |  | >25 | > 10000 nM | H3R pKi ± SEM (H3R [3]; [7]): 6.40 ± 0.21
4 | CN1CCN(CC2Cc3cc(C(C)(C)C)ccc3O2)CC1 (centres unmarked) [1h, 1-methyl-4-[(5-tert-butyl-2,3-dihydro-1-benzofuran-2-yl)methyl]piperazine] | ~851 nM and 851 nM | > 11 | > 10000 nM | 
5 | CN1CCN(CC2Cc3cc(Cl)ccc3O2)CC1 (centres unmarked) [1e, 1-[(5-chloro-2,3-dihydro-1-benzofuran-2-yl)methyl]-4-methylpiperazine] | ~851 nM and 851 nM | 1.1 | 871 nM | Gi activation at H4R (agonist mode) (H4R [1]): did not trigger Gi activation; block of histamine activity at H4R (antagonist mode) (H4R [1]): fully blocked histamine agonistic effect; effect on total inflammatory cell and eosinophil counts in bronchoalveolar lavage (mouse asthma model [5]): low counts in both doses; also recorded: highly effective at low doses; effect on total inflammatory cell and eosinophil counts in bronchoalveolar lavage (mouse asthma model [5]; listed as LINS01007): better anti-inflammatory activity; increase in affinity for H4R by insertion of the chlorine atom (H4R [2]; 1e against the non-substituted molecule): more than 10 fold; binding to H4R in initial screening (in words) (H4R [2]): considerable binding to H4R
6 | c1ccc(N2CCN(CC3Cc4ccccc4O3)CC2)cc1 (centres unmarked) [1d, 1-[(2,3-dihydro-1-benzofuran-2-yl)methyl]-4-phenyl-piperazine] | > 10000 nM |  | > 10000 nM | effect on total inflammatory cell and eosinophil counts in bronchoalveolar lavage (mouse asthma model [5]): dose-dependent effect; affinity for H3R (in words) (H3R [3]): did not show appreciable affinity; anti-inflammatory activity in mouse asthma model (mouse asthma model [6]; earlier report, ref Corrêa et al., 2017): anti-inflammatory activity only at 5 mg/kg dose
7 | NCCc1c[nH]cn1 [Histamine, reference compound] |  |  |  | Gi activation at H4R (agonist mode) (H4R [1]): poor stimulant of Gi; Gi activation at H3R (agonist mode) (H3R [4]): strong activation signal
8 | CN1CCN(C(=O)c2cc3cc(Cl)ccc3[nH]2)CC1 [JNJ-7777120, reference compound] |  |  |  | effect on inflammatory infiltrations in experimental murine asthma model (mouse asthma model [6]; ref Neumann et al., 2013): capable of reducing the inflammatory infiltrations
9 | Clc1ccc2c(c1)CC(CN1CCN(c3ccccc3)CC1)O2 (centres unmarked) [1i, 1-[(5-chloro-2,3-dihydro-1-benzofuran-2-yl)methyl]-4-phenylpiperazine] | > 10000 nM |  | > 10000 nM | affinity for H3R (in words) (H3R [3]): did not show appreciable affinity
10 | CN1CCN(CC2Cc3ccccc3O2)CC1 (centres unmarked) [1b, 1-[(2,3-dihydro-1-benzofuran-2-yl)methyl]-4-methylpiperazine] | 2690 nM |  | > 10000 nM | 
11 | COc1ccc2c(c1)CC(CN1CCN(C)CC1)O2 (centres unmarked) [1g, 1-methyl-4-[(5-methoxy-2,3-dihydro-1-benzofuran-2-yl)methyl]piperazine] | 871 nM | >11 | > 10000 nM | 
12 | c1ccc2c(c1)CC(CN1CCNCC1)O2 (centres unmarked) [1a, 1-[(2,3-Dihydro-1-benzofuran-2-yl)methyl]piperazine] | > 10000 nM |  | > 10000 nM | affinity for H3R (in words) (H3R [3]): did not show appreciable affinity
